Patent US10118922B2 (Janssen Pharmaceutica NV, priority 2013, dated 2018)

Target: T1, short form of the GPR120 receptor (Homo sapiens, UniProt Q5NUL3)
T1 construct: host or cells: PathHunter CHO-K1 GPR120S β-Arrestin Cell Line
T1 sequence (Q5NUL3 1-361): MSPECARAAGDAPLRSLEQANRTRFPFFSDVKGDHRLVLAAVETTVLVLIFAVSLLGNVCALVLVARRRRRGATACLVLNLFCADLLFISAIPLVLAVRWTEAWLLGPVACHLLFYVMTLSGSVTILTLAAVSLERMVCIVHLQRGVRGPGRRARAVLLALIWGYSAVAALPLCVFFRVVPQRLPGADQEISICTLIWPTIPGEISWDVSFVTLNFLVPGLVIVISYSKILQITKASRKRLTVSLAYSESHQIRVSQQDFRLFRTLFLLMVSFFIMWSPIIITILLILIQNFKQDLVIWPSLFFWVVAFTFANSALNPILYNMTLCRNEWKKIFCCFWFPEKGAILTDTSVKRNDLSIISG
Assay: Human GPR120 DiscoveRx PathHunter beta-arrestin assay, Procedure β-arrestin B
Type: cell-based
Settings: PathHunter CHO-K1 GPR120S β-Arrestin cells, 5000 cells/well; read-out: hGPR120 β-arrestin B EC50
Source text: The binding of an agonist (medium/long chain fatty acids or small molecule agonists) to the G-protein-coupled receptor GPR120 activates phospholipase C, leading to release of intracellular Ca^+2 through the generation of inositol 1,4,5-trisphosphate (InsP3 or IP3). GPR120 activation can also trigger intracellular signaling via recruitment of Beta-Arrestin. In the present method, agonist-induced activation of the human GPR120 receptor is monitored through the use of PathHunter CHO-K1 GPR120 Beta-Arrestin Cell Line engineered by DiscoveRx, as detailed below. The cell lines are designed to co-express both the ProLink/Enzyme Donor (PK)-tagged GPCR and the Enzyme […] (EA)-tagged Beta-Arrestin fusion proteins. Upon GPR120 receptor stimulation/activation, the EA-tagged Beta-Arrestin portion is translocated to the tagged receptor, where the two enzyme fragments are brought within close proximity. Under these conditions, these fragments can interact and form an active Beta-gal enzyme complex through Enzyme Fragment Complementation (EFC). This active Beta-gal complex can enzymatically hydrolyse the substrate to produce a detectable light signal; therefore, activation as a function of agonist concentration can be expressed as an EC50 value to determine relative compound activities. This in vitro assay therefore serves to assess compound agonist activity of the GPR120.
In Procedure β-arrestin B the cells used were PathHunter CHO-K1 GPR120S β-Arrestin Cell Line, expressing the short form of the GPR120 receptor (Accession #NM 181745), with 5000 cells/well.
The selected CHO-K1 GPR120 β-Arrestin cells were cultured in Ham's F12 media supplemented with 10% fetal bovine serum (FBS), 1% Glutamine, 1×p/s, 800 μg/mL G418 and 300 μg/mL Hygromycin B (for selection). Cell stocks were maintained and grown in a sub-confluent state using standard cell culture procedures. The day before the experiment, the cells were harvested with non-enzymatic cell dissociation buffer and re-suspended in complete growth media at the desired concentration. A Corning 384-plate was then seeded with the proper number of cells in a volume of 25 μL, per well. The seeded plates were incubated overnight at 37° C.
On the day of the experiment, the Assay Buffer containing (a) HBSS with Ca^++ and Mg^++, (b) 20 mM HEPES, and (c) 0.1% BSA stabilizer (pH 7.4) was prepared. The growth medium was gently removed from the cell plates and 20 μL of Assay Buffer added to each well. The plate was then incubated at 37° C. for 60 min. Test compounds were serially diluted in Assay Buffer to desired concentrations (more particularly to one or more of the following μM concentrations: 25, 12.5, 6.25, 3.125, 1.5625, 0.78125, 0.390625, 0.1953125, 0.09765625, 0.048828125, 0.024414063, 0.012207031). Five μL of compound dilution was then added to each well and the plate incubated at 37° C. for 90 min. The detection reagents were prepared according to the manufacture's instruction. Twelve μL of the detection reagents were added to each well and the plate incubated at room temperature for 60 min.
The plates were read on an EnVision instrument, using Protocol name: Luminescence, Plate type: 384 Costar, Measurement height: 3 mm, Measurement time: 1 s, Aperture: 384 Plate aperture. The % activity relative to the positive control was calculated using the following equation:
The % Activity values were plotted versus the concentration of test compound and fitted to a sigmoidal dose-response curve with a Hill slope=1 (fixed value) using nonlinear regression with GraphPad Prism 5.0 to calculate the EC50 values. The Fitting Equation was: Y=Bottom+(Top-Bottom)/(1+10^((Log EC50−X)*HillSlope)), where X is the log of the concentration and Y is the response.

Structure (SMILES)	EC50
O=C(O)CCc1cc(F)c(OCc2sc(Cl)cc2-c2ccc(Cl)cc2)c(F)c1 [Cpd 2, 3-(4-{[5-Chloro-3-(4-chlorophenyl)thiophen-2-yl]methoxy}-3,5-difluorophenyl)propanoic acid]	68 nM
Cc1sc(-c2ccccc2)c(COc2ccc(CCC(=O)O)c(C)c2C)c1C(F)(F)F [Cpd 33, 3-(2,3-Dimethyl-4-{[5-methyl-2-phenyl-4-(trifluoromethyl)thiophen-3-yl]methoxy}phenyl)propanoic acid]	322 nM
OCCCc1cc(F)c(OCc2c(Cl)nsc2-c2ccc(Cl)cc2)c(F)c1 [Cpd 78, 3-(4-{[3-Chloro-5-(4-chlorophenyl)isothiazol-4-yl]methoxy}-3,5-difluorophenyl)propan-1-ol]	31 nM
